# Experimental data published in EP4417607A1, “HETEROCYCLIC COMPOUND AS SOS1 INHIBITOR AND USES THEREOF” (Nanjing Zaiming Pharmaceutical Co., Ltd., priority 2021, dated 2023).
# pIC50: −log10 of the molar value.
# Assays:
# H358 cells = experiment: H358 cell proliferation inhibition (CellTiter-Glo luminescent cell viability assay); assay type: cell-based; details: 7 days
# Experimental: The effect of the compounds of the present invention on H358 cell proliferation was assessed by CellTiter-Glo luminescent cell viability assay kit method.
# H358 cells (ATCC, CRL-5807) were cultured in RPMI1640 (Hyclone, SH30256.01) complete medium containing 10% FBS (Gibco, 10100147) and 100 U/mL penicillin-streptomycin mixed solution (Gibco, 15140163). When the cells grew to 80-90%, the cells were digested, pipetted, and seeded in a 96-well plate (Corning, 4515) at 3000 cells/well (180 µL RPMI1640 complete medium), and then the 96-well plate was incubated overnight in an incubator at 37 °C with 5% CO2.
# After incubation overnight, 20 µL of a diluted test compound was added to each well using a multi-channel pipette, and the 96-well plate was placed in an incubator at 37 °C with 5% CO2 for further culture. After 7 days, 100 µL of the supernatant was pipetted and discarded. 50 µL of CellTiter-Glo® 3D Cell Viability Assay liquid was added to each well. The plate was shaken at room temperature at 450 rpm for 30 min. After the cells were completely lysed, "Luminescence" on the microplate reader was selected for plate reading. In this experiment, the cell-free group (replaced with 1640 medium) was used as the 100% inhibition group, and the compound-free group in which the cell was added was used as the 0% inhibition group.
# The inhibition percentage of H358 cell proliferation by the compounds of the present invention could be calculated by the following formula: [formula]
# (§1) IC50 values of the compounds were calculated from 8 concentration points using XLfit (ID Business Solutions Ltd., UK) software by the following formula: Y = Bottom + (Top−Bottom)/(1+10^(∧)((logIC50−X)×slopefactor)) [formula]
# Y is the inhibition percentage, X is the logarithmic value of the concentration of the test compound, Bottom is the minimum inhibition percentage, Top is the maximum inhibition percentage, and slope factor is the slope coefficient of the curve.
# [1] = tested on: p-ERK pathway in H358 cells; experiment: p-ERK pathway inhibition in H358 cells (Advanced phospho-ERK (Thr202/Tyr204) cellular kit, HTRF); assay type: cell-based; details: Homo sapiens, NCI-H358, 1 h compound incubation
# Experimental: The effect of the compounds of the present invention on H358 cell p-ERK pathway was assessed by Advanced phospho-ERK (Thr202/Tyr204) cellular kit method.
# The experimental procedures were summarized as follows: H358 cells (ATCC, CRL-5807) were cultured in RPMI1640 (ThermoFisher, A1049101) complete medium containing 10% FBS (Gibco, 10100147) and 100 U/mL penicillin-streptomycin mixed solution (Gibco, 15140163). When the coverage of the cells in the culture vessel reached 80-90%, the cells were pipetted and seeded in a 96-well plate (Corning, 3599) at 50000 cells/well (90 µL RPMI1640 complete medium), and the plate was left to stand for 5 min, cultured in an incubator at 37 °C with 5% CO2 for 6 h, replaced with a serum-free RPMI1640, and starved overnight.
# After incubation overnight, 10 µL of a diluted test compound was added to each well using a multi-channel pipette, and the 96-well plate was cultured in an incubator at 37 °C with 5% CO2 for 1 h. The supernatant was poured. The cells were washed once with PBS. 50 µL of a lysis buffer (Advanced phospho-ERK (Thr202/Tyr204) cellular kit, 64AERPEH) was added to each well. The plate was shaken at room temperature at 450 rpm for 1 h. After the cells were completely lysed, 16 µL of the supernatant was added to a 384-well plate (PE, 6007299), mixed energy donor Eu and energy acceptor D2 (D2/Eu = 1:1) were added, and the plate was incubated at room temperature for 4 h. HTRF on the microplate reader was selected for plate reading, Ratio = Signal 665 nm/Signal 620 nm × 10^4. In this experiment, the cell-free group (replaced with 1640 medium) was used as the 100% inhibition group, and the compound-free group in which the cell was added was used as the 0% inhibition group.
# The inhibition percentage of H358 cell p-ERK pathway by the compounds of the present invention could be calculated by the following formula: [formula]
# as §1
# Y is the inhibition percentage, X is the logarithmic value of the concentration of the test compound, Bottom is the minimum inhibition percentage, Top is the maximum inhibition percentage, and slope factor is the slope coefficient of the curve. The default fitted curve was used to fit the slope of the S-shaped curve to determine the IC50 value. Table 2. Results of p-ERK inhibition test by the compounds of the present invention
pIC50 [1],Molecule,also measured
–,"Cc1nc(N[C@H](C)c2cccc(C(F)F)c2F)c2cn(C3(CF)CC3)c(=O)c(N3CCN(C4COC4)CC34CC4)c2n1 [Example 146, (R)-4-((1-(3-(difluoromethyl)-2-fluorophenyl)ethyl)amino)-6-(1-(fluoromethyl)cyclopropyl)-2-methyl-8-(7-(oxetan-3-yl)-4,7-diazaspiro [2.5]octan-4-yl)pyrido [4,3-d]pyrimidine-7(6H)-one]","pIC50 (H358 cells; Homo sapiens, NCI-H358, 168 h): 7.16"
–,"(R)-4-((1-(3-(difluoromethyl)-2-fluorophenyl)ethyl)amino)-8-ethoxy-6-(1-(fluoromethyl)cyclopropyl)-2-methylpyrido[4,3-d]pyrimidine-7(6H)-one [Example 10]",pIC50 (H358 cells): 7.38
–,"Cc1nc(N[C@H](C)c2cccc(C#N)c2C)c2cn(C3(CF)CC3)c(=O)c(N3CCN(C)CC3)c2n1 [Example 74, (R)-3-(1-((6-(1-(fluoromethyl)cyclopropyl)-2-methyl-8-(4-methylpiperazin-1-yl)-7-oxo-6,7-dihydropyrido[4,3-d]pyrimidin-4-yl)amino)ethyl)-2-methylbenzonitrile]","pIC50 (H358 cells; Homo sapiens, NCI-H358, 168 h): 7.07"
–,"Cc1nc(N[C@H](C)c2cccc(C(F)F)c2F)c2cn(C3(CF)CC3)c(=O)c(Oc3cnn(C)c3)c2n1 [Example 60, (R)-4-((1-(3-(difluoromethyl)-2-fluorophenyl)ethyl)amino)-6-(1-(fluoromethyl)cyclopropyl)-2-methyl-8-((1-methyl-1H-pyrazol-4-yl)oxy)pyrido[4,3-d)pyrimidine-7(6H)-one]","pIC50 (H358 cells; Homo sapiens, NCI-H358, 168 h): 6.79"
6.78,"Cc1nc(N[C@H](C)c2cccc(C(F)F)c2F)c2cn(C3(CF)CC3)c(=O)c(N3CCOCC3=O)c2n1 [Example 172, (R)-4-(4-((1-(3-(difluoromethyl)-2-fluorophenyl)ethyl)amino)-6-(1-(fluoromethyl)cyclopropyl)-2-methyl-7-oxo-6,7-dihydropyrido[4,3-d]pyrimidin-8-yl)morpholine-3-one]",–
7.33,"Cc1nc(N[C@H](C)c2cccc(C(F)F)c2F)c2cn(C3(CF)CC3)c(=O)c(N3C[C@@H](F)[C@@H](F)C3)c2n1 [Example 107, 4-(((R)-1-(3-(difluoromethyl)-2-fluorophenyl)ethyl)amino)-8-((3S,4R)-3,4-difluoropyrrolidin-1-yl)-6-(1-(fluoromethyl)cyclopropyl)-2-methylpyrido[4,3-d]pyrimidine-7(6H)-one]",–
7.01,"Cc1nc(N[C@H](C)c2cccc(C(F)F)c2F)c2cn(C3(CF)CC3)c(=O)c(NC[C@@H]3CCO3)c2n1 [Example 105, 4-(((R)-1-(3-(difluoromethyl)-2-fluorophenyl)ethyl)amino)-6-(1-(fluoromethyl)cyclopropyl)-2-methyl-8-((((S)-oxetan-2-yl)methyl)amino)pyrido[4,3-d]pyrimidine-7(6H)-one]",–
7.32,Cc1nc(N[C@H](C)c2cccc(C(F)F)c2F)c2cn(C3(CF)CC3)c(=O)c(N3Cc4cn(C5CC5)nc4C3)c2n1 [Example 106],–
7.36,Cc1nc(N[C@H](C)c2cccc(C#N)c2C)c2cn(N3CCOCC3)c(=O)c(-c3ccnc(N4CCOCC4)c3)c2n1 [Example 163],–
7.10,Cc1nc(N[C@H](C)c2cccc(C(F)F)c2F)c2cn(N3CCOCC3)c(=O)c(N3CCO[C@@H](C)C3)c2n1 [Example 79],–
6.77,"Cc1nc(N[C@H](C)c2cccc(C(F)F)c2F)c2cn(C3(CF)CC3)c(=O)c(N3CC(C)(C#N)C3)c2n1 [Example 75, (R)-1-(4-((1-(3-(difluoromethyl)-2-fluorophenyl)ethyl)amino)-6-(1-(fluoromethyl)cyclopropyl)-2-methyl-7-oxo-6,7-dihydropyrido[4,3-d]pyrimidin-8-yl)-3-methylazetidine-3-carbonitrile]",–
6.92,Cc1nc(N[C@H](C)c2cccc(C(F)F)c2F)c2cn(C3(CF)CC3)c(=O)c(N3CCC(F)(F)CC3)c2n1 [Example 169],–
7.11,"Cc1nc(N[C@H](C)c2cccc(S(F)(F)(F)(F)F)c2)c2cn(N3CCOCC3)c(=O)c(N3CCOCC3)c2n1 [Example 81, (R)-2-methyl-6,8-dimorpholine-4-((1-(3-(pentafluoro-λ^6-sulfanyl)phenyl)ethyl)amino)pyrido[4,3-d]pyrimidine-7(6H)-one]",–
7.31,"Cc1nc(N[C@H](C)c2cccc(C(F)F)c2F)c2cn(C3(CF)CC3)c(=O)c(N3CCN(CC#N)CC3)c2n1 [Example 134, (R)-2-(4-(4-((1-(3-(difluoromethyl)-2-fluorophenyl)ethyl)amino)-6-(1-(fluoromethyl)cyclopropyl)-2-methyl-7-oxo-6,7-dihydropyrido[4,3-d]pyrimidin-8-yl)piperazin-1-yl)acetonitrile]",–
7.04,"Cc1nc(N[C@H](C)c2cccc(C(F)F)c2F)c2cn(C3(CF)CC3)c(=O)c(Nc3cnn(C)c3)c2n1 [Example 93, (R)-4-((1-(3-(difluoromethyl)-2-fluorophenyl)ethyl)amino)-6-(1-(fluoromethyl)cyclopropyl)-2-methyl-8-((1-methyl-1H-pyrazol-4-yl)amino)pyrido[4,3-d]pyrimidine-7(6H)-one]",–
6.95,"Cc1nc(N[C@H](C)c2cccc(C#N)c2C)c2cn(N3CCOCC3)c(=O)c(N3CCN4C(=O)OC[C@H]4C3)c2n1 [Example 99, 2-methyl-3-((R)-1-((2-methyl-6-morpholine-7-oxo-8-((R)-3-oxotetrahydro-3H-oxazolo[3,4-a]pyrazin-7(1H)-yl)-6,7-dihydropyrido[4,3-d]pyrimidin-4-yl)amino)ethyl)benzonitrile]",–
7.30,"Cc1nc(N[C@H](C)c2cccc(C(F)F)c2F)c2cn(C3(CF)CC3)c(=O)c(-n3cc(C#N)cn3)c2n1 [Example 101, (R)-1-(4-((1-(3-(difluoromethyl)-2-fluorophenyl)ethyl)amino)-6-(1-(fluoromethyl)cyclopropyl)-2-methyl-7-oxo-6,7-dihydropyrido[4,3-d]pyrimidin-8-yl)-1H-pyrazole-4-carbonitrile]",–
6.91,"Cc1nc(N[C@H](C)c2cccc(C(F)F)c2F)c2cn(C3(CF)CC3)c(=O)c(N3C[C@H]4CC[C@@H](C3)O4)c2n1 [Example 54, 8-((1R,5S)-8-oxa-3-azabicyclo[3.2.1]octan-3-yl)-4-(((R)-1-(3-(difluoromethyl)-2-fluorophenyl)ethyl)amino)-6-(1-(fluoromethyl)cyclopropyl)-2-methylpyrido[4,3-d]pyrimidine-7(6H)-one]",–
6.90,"Cc1nc(N[C@H](C)c2cccc(C(F)F)c2F)c2cn(C3(CF)CC3)c(=O)c(-c3cnc4cnn(C)c4c3)c2n1 [Example 129, (R)-4-((1-(3-(difluoromethyl)-2-fluorophenyl)ethyl)amino)-6-(1-(fluoromethyl)cyclopropyl)-2-methyl-8-(1-methyl-1H-pyrazolo[4,3-b]pyridin-6-yl)pyrido[4,3-d]pyrimidine-7(6H)-one]",–
7.01,Cc1nc(N[C@H](C)c2cccc(C(F)F)c2F)c2cn(C3(CF)CC3)c(=O)c(N3CCC(C)(C#N)CC3)c2n1 [Example 173],–

Molecule,pIC50 [1],also measured
"Cc1nc(N[C@H](C)c2cccc(C(F)F)c2F)c2cn(C3(CF)CC3)c(=O)c(N3C4CCC3COC4)c2n1 [Example 44, 8-(3-oxa-8-azabicyclo[3.2.1]oct-8-yl)-4-(((R)-1-(3-(difluoromethyl)-2-fluorophenyl)ethyl)amino)-6-(1-(fluoromethyl)cyclopropyl)-2-methylpyrido[4,3-d]pyrimidine-7(6H)-one]",6.88,–
